This is an account of results in patent US7399607B2, “Fluorescence polarization assays for determining clostridial toxin activity” (priority 2004, dated 2008).

The test system of the first test is BoNT/A. In kind it is biochemical.
Conditions: not given
As to “GFP-SNAP25(134-206)-His6-C-Alexa Fluor® 594”, the depolarization during proteolysis entry is “approximately 20 mP”.

For a further test, the system named is BoNT/A. The settings on record: cited from earlier work.
As for SNKTRIDEAAQRATKML [Peptide N10A], the “Relative Rate” value is reported as 0.06.

Take SNKTRIDEANARATKML [Peptide Q11A]: the “Relative Rate” value is on record as 0.19.

Regarding SNKTRIDEANBRATKML [Peptide Q11B], the “Relative Rate” value is 0.25.

Regarding SNKTRIDEANNRATKML [Peptide Q11N], the “Relative Rate” value was 0.66.

Regarding SNKTRIDEANQRABKML [Peptide T14B], the “Relative Rate” value is 1.20.

Consider SNKTRIDEANQRASKML [Peptide T14S], for which the “Relative Rate” value was 0.26.

For SNKTRIDEANQRATAML [Peptide K15A], the “Relative Rate” value is 0.12.

With SNKTRIDEANQRATK [[1-15]], the “Relative Rate” value is 0.03.

On to SNKTRIDEANQRATKAL [Peptide M16A], for which the “Relative Rate” value is listed as 0.38.

SNKTRIDEANQRATKM [[1-16]]: the “Relative Rate” value was 1.17.

Consider SNKTRIDEANQRATKML [[1-17]], for which the “Relative Rate” value is 1.00.

Consider SNKTRIDEANQRATKXL [Peptide M16X], for which the “Relative Rate” value was 1.20.

In the case of SNKTRIDEANQRBTKML [Peptide A13B], the “Relative Rate” value is on record as 0.79.

Turning to SNKTRIDEBNQRATKML [Peptide A9B], the “Relative Rate” value is reported as 0.38.

Take SNKTRIDQANQRATKML [Peptide E8Q]: the “Relative Rate” value is recorded as 2.08.

As to SNKTRINEANQRATKML [Peptide D7N], the “Relative Rate” value is on record as 0.23.
